Measured values: patent US20250114451A1, “REDUCING POLYSORBATE DEGRADATION IN PROTEIN FO[…] LOW AMOUNTS OF CITRIC ACID” (LONZA LTD, priority 2022, published 2025)

Details: 0.1 mM, 1 mM, 10 mM, 20 mM citric acid vs 0 mM; Rituximab Protein A eluate 1.4 mg/mL, 0.02% (w/v) PS80, pH 6; 2 weeks and 4 weeks at 40° C.
Experimental: A formulation buffer containing 25 mM L-His/L-His HCl at pH 6.0, 600 mM sucrose and 0.05% (w/v) PS80 was prepared. The solution was filtered over a 0.22 μm PVDF Durapore® sterile filter.
A second solution of 40 mM citric acid at pH 6.0 was prepared and filtered over a 0.22 μm PVDF Durapore® sterile filter. In addition to the 40 mM citric acid stock solution, dilutions of the 40 mM citric acid solution at a target concentration of 20 mM, 2 mM and 0.2 mM using water were prepared.
Five protein formulation samples were prepared each by spiking 320 μL of the downstream purification sample (Rituximab Protein A eluate, 18 g/L) into 1680 μL of the above prepared formulation buffer in five different particle-free Nalgene bottles. […]
Analyzing polysorbate degradation in protein formulation samples 1.2 mL of each of the protein formulation sample were aliquoted into particle-free Nalgene tubes and placed into a 40° C. stability chamber. The samples were analysed after 2 week and 4 weeks of incubation using HPLC-FMA against a standard curve of intact PS80 in water.
The HPLC-FMA measurement was performed using a high-performance liquid chromatography (HPLC) system (Waters Alliance e2695) equipped with an isocratic pump, fluorescence detector (Waters 2475 FLR Detector), auto sampler and knitted reaction coil 1 mL (Supelco #57410-U). […] Fluorescence was measured at λex=350 nm and λem=420 nm. […]

SMILES: O=C(O)CC(O)(CC(=O)O)C(=O)O [citric acid, Citric acid monohydrate]
- PS80 concentration / polysorbate degradation in protein formulation: effective in reducing polysorbate degradation
